Tests used:
[1] = Compound was tested for inhibitory activity against alpha-1,2-Fucosidase obtained from Arthrobacter oxidans F1
[2] = Compound was tested for inhibitory activity against alpha-Fucosidase obtained from Bovine epididymis
[3] = Compound was tested for inhibitory activity against alpha-Fucosidase obtained from Bovine kidney

| IC50 [1] [µM] | IC50 [2] [µM] | IC50 [3] [µM] | SMILES |
| --- | --- | --- | --- |
| 0.08 | 0.16 | 0.206 | CC1NC(CN)(CO)C(O)C(O)C1O (centres undefined) [2-Aminomethyl-2-hydroxymethyl-6-methyl-piperidine-3,4,5-triol] |
| 0.122 | 0.11 | 0.075 | CC1NC(C#N)(CO)C(O)C(O)C1O (centres undefined) [3,4,5-Trihydroxy-2-hydroxymethyl-6-methyl-piperidine-2-carbonitrile] |
| 0.116 | 0.17 | 0.05 | CC1NC(CO)(CNC(=O)CN)C(O)C(O)C1O (centres undefined) [2-Amino-N-(3,4,5-trihydroxy-2-hydroxymethyl-6-methyl-piperidin-2-ylmethyl)-acetamide] |

— BindingDB's records for doi:10.1016/s0960-894x(98)00617-9 (Scripps Research Institute, 1999)
